# Data from ChEMBL document CHEMBL3822367, “Use of Photosensitizers in Semisolid Formulations for Microbial Photodynamic Inactivation” (2016).
# Test system: Mycobacterium tuberculosis variant bovis BCG
# Experiment: Antimycobacterial activity against Mycobacterium bovis BCG Pasteur ATCC 35734 assessed as cell survival at 5 uM after 1 hr followed by irradiation with light at 60 to 100 J/cm'2
# Format: functional, organism-based
sequence,measurement,value
VERTEPORFIN,Survival,26%
